The values that follow come from BindingDB's records for patent US10188642 (Cancer Research Technology Limited, 2019).

The target of the experiment is T1, Dual specificity protein kinase TTK (Homo sapiens, UniProt P33981).
T1 sequence (P33981 whole entry): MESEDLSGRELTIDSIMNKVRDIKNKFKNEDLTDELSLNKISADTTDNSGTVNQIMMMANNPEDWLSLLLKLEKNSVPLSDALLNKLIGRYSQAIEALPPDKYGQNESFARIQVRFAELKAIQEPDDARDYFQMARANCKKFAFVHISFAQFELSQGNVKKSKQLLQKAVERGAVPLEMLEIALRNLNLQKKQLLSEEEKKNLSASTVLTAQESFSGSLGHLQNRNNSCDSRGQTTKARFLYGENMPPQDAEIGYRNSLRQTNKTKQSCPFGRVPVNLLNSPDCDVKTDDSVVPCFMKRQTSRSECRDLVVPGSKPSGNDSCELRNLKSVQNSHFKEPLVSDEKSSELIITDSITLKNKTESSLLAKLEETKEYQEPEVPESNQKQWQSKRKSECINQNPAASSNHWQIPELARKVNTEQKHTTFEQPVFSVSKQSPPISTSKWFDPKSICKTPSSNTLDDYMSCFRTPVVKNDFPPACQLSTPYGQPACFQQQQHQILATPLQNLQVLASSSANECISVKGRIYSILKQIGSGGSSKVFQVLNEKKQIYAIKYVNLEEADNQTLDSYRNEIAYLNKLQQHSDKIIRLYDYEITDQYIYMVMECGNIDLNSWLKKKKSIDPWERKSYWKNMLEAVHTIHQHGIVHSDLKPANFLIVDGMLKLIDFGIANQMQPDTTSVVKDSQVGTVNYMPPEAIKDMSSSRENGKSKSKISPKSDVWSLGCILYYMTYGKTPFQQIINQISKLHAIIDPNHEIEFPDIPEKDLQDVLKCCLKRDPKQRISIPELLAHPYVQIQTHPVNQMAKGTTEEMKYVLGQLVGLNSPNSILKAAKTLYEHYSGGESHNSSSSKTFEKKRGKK
Briefly: Measurement of Inhibition of MPS1 Kinase. As to the method: The reaction was carried out for 60 min at room temperature and stopped by the addition of buffer (10 μl) containing 20 mM EDTA, 0.05% (v/v) Brij-35, in 0.1M HEPES-buffered saline (Free acid, Sigma, UK). […] The % inhibition of the compounds is calculated relative to the means of selected control wells. […] The % inhibitions at each concentration are then fitted to a 4 parameter logistic fit: y=(a+((b−a)/(1+((c/x^d)))) where a=asym min, b=asym max, c=IC50 and d=hill coefficient.

Each structure is given as a SMILES string.

For orientation: IC50 means the midpoint of a concentration-inhibition curve. Higher therefore signals weaker potency.

On to `COc1cc(-c2nnc3n2CCN(C(=O)CC(C)(C)C)C3)ccc1Nc1cc2cc(-c3cnn(CC(C)(C)O)c3)ccc2cn1` [US10188642, Example 55], for which the IC50 is 3 nM.
